Here are results for one compound from US9795643B2, “Oncolytic measles virus” (priority 2010, dated 2017).

A value given as a limit tells only on which side of the number the result lay.

The subject of this test is subcutaneously grown Hep3B tumors. Kind of test: Murine xenograft model of human HCC (Hep3B). It is filed as in vivo, nude mice. The method, then: To test the armed vectors pc3MerV2 Id-SCD, pMerV2 P-SCD, and pc3MerV2 Id-VP22SCD in vivo, a murine xenograft model of human HCC was applied.
To compare the armed vectors, a mouse model of subcutaneously grown Hep3B tumors was chosen. This decision was based on the facts (i) that Hep3B can be efficiently infected by MeV and support MeV replication at high levels, (ii) that in Hep3B, the conversion of 5-FC into 5-FU is fast and efficient and (iii) that over an incubation of 1-4 days after addition of the prodrug to infected cells, an increasing gap between the treatment with virus alone and the combination treatment can be observed. Additionally, a mouse model of Hep3B has been described before (Blechacz B, Splinter P L, Greiner S, Myers R, Peng K W, Federspiel M J, Russell S J, LaRusso N F. Hepatology. 2006 December; 44(6):1465-77) with a high engraftment ratio (80%, personal communication with Boris Blechacz, Mayo Clinic, Rochester, Minn., USA). In contrast, this ratio is much lower in PLC/PRF/5 (60%) and in HepG2, both determined in our laboratory.
For this in vivo experiment, six week old nude mice received subcutaneous injections of 100 μl cell suspension containing 10^6 Hep3B cells in PBS. […] The tumors were very well vascularized and appeared blue through the nude skin of the mice. After the tumors had grown to a diameter of approximately 5 mm, the mice received five intratumoral injections of the respective virus (MeV Id-SCD, MeV Id-VP22SCD or MeV P-SCD) with 2*10^6 pfu per injection and one injection daily (total dose: 10^7 pfu). Control groups were treated with medium only. On the following seven days, the mice received 500 mg/kg bodyweight 5-FC in PBS intraperitoneally. Tumor volume and weight of the animals were determined three times a week.
The combinatorial treatment (MeV-SCD+5-FC) did neither lead to any visible changes in the behavior of the animals, nor did they show reactions like enhanced sensitivity to touch. The skin of the mice looked healthy, no changes in their movement or feeding behaviors were observed and their weight remained stable.

As to `Nc1nc(=O)[nH]cc1F` [5-FC, 5-fluorocytosine], for the setting “5-FC 500 mg/kg i.p., 7 days, no virus”, the “effect of administration of the prodrug alone” value is “no effect”. The “day before which all mice had to be sacrificed” value (5-FC only group) is < 50 days. The median survival (virus 5 intratumoral injections 2*10^6 pfu, 5-FC 500 mg/kg i.p. for 7 days) is listed as 32 days.
